# Source: patent US10160736B2, “1,3,4-oxadiazole and 1,3,4-thiadiazole derivatives as immunomodulators” (Aurigene Discovery Technologies Limited, priority 2013, dated 2018)
# Biological target: T1, Recombinant mouse PD-L1 (Mus musculus, UniProt Q9EP73)
# T1 construct: Fc (Fc chimera); purchased R&D Systems 1019-B7-100
# Test: Rescue of mouse splenocyte proliferation in the presence of recombinant PD-L1/PD-L2 (CFSE proliferation assay)
# Type: cell-based
# Details: 100 nM compound; anti-CD3/CD28 stimulated mouse splenocytes + PD-L1; 72 h; normalised to stimulated splenocyte proliferation as 100%; read-out: Percent rescue of splenocyte proliferation (@100 nM compound concentration)
# Experimental: Rescue of Mouse Splenocyte Proliferation in the Presence of Recombinant PD-L1/PD-L2:
# Recombinant mouse PD-L1 (rm-PDL-1, cat no: 1019-B7-100 and R&D Systems) were used as the source of PD-L1.
# Mouse splenocytes harvested from 6-8 weeks old C57 BL6 mice; RPMI 1640 (GIBCO, Cat #11875); DMEM with high glucose (GIBCO, Cat # D6429); Fetal Bovine Serum [Hyclone, Cat # SH30071.03]; Penicillin (10000 unit/ml)-Streptomycin (10,000 μg/ml) Liquid (GIBCO, Cat #15140-122); MEM Sodium Pyruvate solution 100 mM (100×), Liquid (GIBCO, Cat #11360); Nonessential amino acid (GIBCO, Cat #11140); L-Glutamine (GIBCO, Cat #25030); Anti-CD3 antibody (eBiosciences—16-0032); Anti-CD28 antibody (eBiosciences—16-0281); ACK lysis buffer (1 mL) (GIBCO, Cat #-A10492); Histopaque (density—1.083 gm/mL) (SIGMA 10831); Trypan blue solution (SIGMA-T8154); 2 mL Norm Ject Luer Lock syringe-(Sigma 2014-12); 40 μM nylon cell strainer (BD FALCON 35230); Hemacytometer (Bright line-SIGMA Z359629); FACS Buffer (PBS/0.1% BSA): Phosphate Buffered Saline (PBS) pH 7.2 (HiMedia TS1006) with 0.1% Bovine Serum Albumin (BSA) (SIGMA A7050) and sodium azide (SIGMA 08591); 5 mM stock solution of CFSE: CFSE stock solution was prepared by diluting lyophilized CFSE with 180 μL of Dimethyl sulfoxide (DMSO C2H6SO, SIGMA-D-5879) and aliquoted in to tubes for further use. Working concentrations were titrated from 10 μM to 1 μM. (eBioscience-650850-85); 0.05% Trypsin and 0.02% EDTA (SIGMA 59417C); 96-well format ELISA plates (Corning CLS3390); BD FACS caliber (E6016); Recombinant mouse B7-H1/PDL1 Fc Chimera, (rm-PD-L1 cat no: 1019-B7-100).
# Splenocytes harvested in a 50 mL falcon tube by mashing mouse spleen in a 40 μm cell strainer were further treated with 1 mL ACK lysis buffer for 5 min at room temperature. After washing with 9 mL of RPMI complete media, cells were re-suspended in 3 mL of 1×PBS in a 15 mL tube. 3 mL of Histopaque was added carefully to the bottom of the tube without disturbing overlaying splenocyte suspension. After centrifuging at 800×g for 20 min at room temperature, the opaque layer of splenocytes was collected carefully without disturbing/mixing the layers. Splenocytes were washed twice with cold 1×PBS followed by total cell counting using Trypan Blue exclusion method and used further for cell based assays.
# Splenocytes were cultured in RPMI complete media (RPMI+10% fetal bovine serum+1 mM sodium pyruvate+10,000 units/ml penicillin and 10,000 μg/ml streptomycin) and maintained in a CO2 incubator with 5% CO2 at 37° C.
# CFSE is a dye that passively diffuses into cells and binds to intracellular proteins. 1×10^6 cells/mL of harvested splenocytes were treated with 5 μM of CFSE in pre-warmed 1×PBS/0.1% BSA solution for 10 min at 37° C. Excess CFSE was quenched using 5 volumes of ice-cold culture media to the cells and incubated on ice for 5 min. CFSE labelled splenocytes were further given three washes with ice cold complete RPMI media. CFSE labelled 1×10^5 splenocytes added to wells containing either MDA-MB231 cells (1×10^5 cells cultured in high glucose DMEM medium) or recombinant […] PDL-1 (100 ng/mL) and test compounds. Splenocytes were stimulated with anti-mouse CD3 and anti-mouse CD28 antibody (1 μg/mL each), and the culture was further incubated for 72 h at 37° C. with 5% CO2. Cells were harvested and washed thrice with ice cold FACS buffer and % proliferation was analyzed by flow cytometry with 488 nm excitation and 521 nm emission filters.
# Percent splenocyte proliferation was analyzed using cell quest FACS program and percent rescue of splenocyte proliferation by compound was estimated after deduction of % background proliferation value and normalising to % stimulated splenocyte proliferation (positive control) as 100%.
# Stimulated splenocytes: Splenocytes+anti-CD3/CD28 stimulation
# Background proliferation: Splenocytes+anti-CD3/CD28+PD-L1
# Compound proliferation: Splenocytes+anti-CD3/CD28+PD-L1+Compound […]
# T1 sequence (Q9EP73 with tags, fused parts or gaps limits assumed): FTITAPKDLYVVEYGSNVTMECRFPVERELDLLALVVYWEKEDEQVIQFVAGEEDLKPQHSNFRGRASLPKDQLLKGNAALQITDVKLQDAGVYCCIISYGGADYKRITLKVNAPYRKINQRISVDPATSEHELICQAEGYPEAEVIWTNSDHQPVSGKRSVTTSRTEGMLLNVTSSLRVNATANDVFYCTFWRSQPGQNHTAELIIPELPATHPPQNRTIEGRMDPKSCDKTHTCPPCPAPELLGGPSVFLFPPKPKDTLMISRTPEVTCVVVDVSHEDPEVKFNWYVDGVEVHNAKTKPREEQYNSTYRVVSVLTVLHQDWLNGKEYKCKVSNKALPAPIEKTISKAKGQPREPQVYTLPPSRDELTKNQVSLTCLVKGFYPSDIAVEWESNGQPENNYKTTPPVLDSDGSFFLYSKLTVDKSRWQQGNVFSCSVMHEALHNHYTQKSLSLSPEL
row,activation at 0.1 µM,Structure (SMILES)
1,61.2%,CC(O)[C@H](NC(=O)N[C@@H](C)c1nnc([C@@H](N)CO)o1)C(=O)O (stereo partly shown) [Compound 1]
2,80.3%,CC(O)[C@H](NC(=O)N[C@@H](CC(N)=O)c1nnc([C@@H](N)CO)o1)C(=O)O (stereo partly shown) [Compound 2]
3,48.4%,NC(=O)C[C@H](N)c1nnc([C@@H](N)CO)s1 [Compound 3]
4,60%,CC(O)[C@H](NC(=O)N[C@@H](CC(N)=O)c1nnc([C@@H](N)CO)s1)C(=O)O (stereo partly shown) [Compound 4]
5,74%,CC(O)[C@H](NC(=O)N[C@@H](CC(N)=O)c1nnc([C@@H](N)C(C)O)o1)C(=O)O (stereo partly shown) [Compound 9]
6,58%,CC(O)[C@H](N)c1nnc([C@H](CC(N)=O)NC(=O)N[C@@H](CO)C(=O)O)o1 (stereo partly shown) [Compound 10]
7,92%,CC(O)[C@H](N)c1nnc([C@H](CCC(N)=O)NC(=O)N[C@@H](CO)C(=O)O)o1 (stereo partly shown) [Compound 12]
8,75%,CC(O)[C@H](NC(=O)N[C@@H](CCC(N)=O)c1nnc([C@@H](N)C(C)O)o1)C(=O)O (stereo partly shown) [Compound 13]
9,53%,NC(=O)C[C@H](NC(=O)N[C@@H](CO)C(=O)O)c1nnc([C@@H](N)CO)o1 [Compound 14]
10,69%,CC(O)[C@H](NC(=O)N[C@@H](CCC(=O)O)c1nnc([C@@H](N)CO)o1)C(=O)O (stereo partly shown) [Compound 15]
11,56%,CC(O)[C@H](NC(=O)N[C@@H](CCC(N)=O)c1nnc([C@@H](N)CO)o1)C(=O)O (stereo partly shown) [Compound 16]
12,53%,NC(=O)CC[C@H](NC(=O)N[C@@H](CO)C(=O)O)c1nnc([C@@H](N)CO)o1 [Compound 17]
13,68%,CC(O)[C@H](NC(=O)N[C@@H](CC(=O)O)c1nnc([C@@H](N)CO)o1)C(=O)O (stereo partly shown) [Compound 18]
